Patent US12240844B2 (Voronoi, Inc., priority 2019, dated 2025)

Assays:
Type in all cases: biochemical
[1] = molecular target: T1, human GST-DYRK1A (full length) (Homo sapiens, UniProt Q13627); test: GST-DYRK1A enzyme inhibition, ADP-Glo kinase assay; conditions: read-out: DYRK1 IC50
T1 construct: purified human GST-DYRK1A (full length, Thermo scientifics) enzyme; GST; purchased Thermo scientifics
Procedure: (§1) In order to evaluate the inhibitory activity of the compounds according to the present invention on LRRK2, LRRK2 (G2019S), DYRK1, CLK1 and TTK kinases, the following experiment was performed.
(§2) Example compounds were reacted with the purified human GST-DYRK1A (full length, Thermo scientifics) enzyme to evaluate the enzyme inhibitory ability as follows. As the reaction buffer, the composition of 40 mM Tris-HCl pH 7.4, 20 mM MgCl2, 0.5 mg/mL BSA, and 50 uM DTT was used, and the reaction of all test materials was performed on the reaction buffer. During the test, the human GST-DYRK1A (full length, 10 ng) enzyme, the purified ATP (10 uM), and a specific substrate solution were reacted at 25° C. for 1 hour, and then the enzyme activity was identified using the in vitro ADP-Glo™ kinase assay (promega). Luminescence was measured by reacting the enzyme activity reaction solution, an ADP-Glo reaction solution and the enzyme potency detection solution in a ratio of 2:2:1. The degree of inhibition of enzyme activity according to the treatment concentrations of the respective compounds was calculated based on the fluorescence of the enzyme activity of a solvent control group that was not treated with the compound, where the concentration of each compound to inhibit enzyme activity inhibition by 50% was determined as an IC50 (nM) value. The IC50 of each compound was determined in triplicate data sets and obtained using Prism (version 7.01, GraphPad) software.
(§3) In the table below, the following designations were used for the evaluation of enzyme inhibitory ability.

human GST-CLK1 (129-end) = molecular target: T2, human GST-CLK1 (129-end) (Homo sapiens, UniProt P49759); test: GST-CLK1 enzyme inhibition, ADP-Glo kinase assay; conditions: ATP 10 uM
T2 construct: purified human GST-CLK1 (129-end, Signalchem) enzyme; GST; purchased Signalchem
T2 sequence (P49759 129-484 limits assumed): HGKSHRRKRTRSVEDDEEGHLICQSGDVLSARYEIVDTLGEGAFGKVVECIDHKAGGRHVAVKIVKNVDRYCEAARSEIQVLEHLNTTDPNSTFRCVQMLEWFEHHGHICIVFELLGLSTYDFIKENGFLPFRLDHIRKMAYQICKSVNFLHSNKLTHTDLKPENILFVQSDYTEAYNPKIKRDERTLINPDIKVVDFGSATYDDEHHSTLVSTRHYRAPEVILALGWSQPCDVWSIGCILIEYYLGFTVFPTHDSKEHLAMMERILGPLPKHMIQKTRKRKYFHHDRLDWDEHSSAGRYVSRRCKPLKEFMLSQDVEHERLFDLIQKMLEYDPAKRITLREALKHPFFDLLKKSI
Procedure: as §1
as §2, with “GST-CLK1 (129-end, Signalchem)” for “GST-DYRK1A (full length, Thermo scientifics)”, “GST-CLK1 (129-end, 3” for “GST-DYRK1A (full length, 10”
as §3

LRRK2 (G2019S) = LRRK2 (G2019S) (Homo sapiens, UniProt Q5S007, G2019S); test: LRRK2 G2019S enzyme inhibition, ADP-Glo kinase assay; parameters: purchased SignalChem L10-12GG
Sequence of LRRK2 (G2019S) (Q5S007 970-2527 G2019S limits assumed): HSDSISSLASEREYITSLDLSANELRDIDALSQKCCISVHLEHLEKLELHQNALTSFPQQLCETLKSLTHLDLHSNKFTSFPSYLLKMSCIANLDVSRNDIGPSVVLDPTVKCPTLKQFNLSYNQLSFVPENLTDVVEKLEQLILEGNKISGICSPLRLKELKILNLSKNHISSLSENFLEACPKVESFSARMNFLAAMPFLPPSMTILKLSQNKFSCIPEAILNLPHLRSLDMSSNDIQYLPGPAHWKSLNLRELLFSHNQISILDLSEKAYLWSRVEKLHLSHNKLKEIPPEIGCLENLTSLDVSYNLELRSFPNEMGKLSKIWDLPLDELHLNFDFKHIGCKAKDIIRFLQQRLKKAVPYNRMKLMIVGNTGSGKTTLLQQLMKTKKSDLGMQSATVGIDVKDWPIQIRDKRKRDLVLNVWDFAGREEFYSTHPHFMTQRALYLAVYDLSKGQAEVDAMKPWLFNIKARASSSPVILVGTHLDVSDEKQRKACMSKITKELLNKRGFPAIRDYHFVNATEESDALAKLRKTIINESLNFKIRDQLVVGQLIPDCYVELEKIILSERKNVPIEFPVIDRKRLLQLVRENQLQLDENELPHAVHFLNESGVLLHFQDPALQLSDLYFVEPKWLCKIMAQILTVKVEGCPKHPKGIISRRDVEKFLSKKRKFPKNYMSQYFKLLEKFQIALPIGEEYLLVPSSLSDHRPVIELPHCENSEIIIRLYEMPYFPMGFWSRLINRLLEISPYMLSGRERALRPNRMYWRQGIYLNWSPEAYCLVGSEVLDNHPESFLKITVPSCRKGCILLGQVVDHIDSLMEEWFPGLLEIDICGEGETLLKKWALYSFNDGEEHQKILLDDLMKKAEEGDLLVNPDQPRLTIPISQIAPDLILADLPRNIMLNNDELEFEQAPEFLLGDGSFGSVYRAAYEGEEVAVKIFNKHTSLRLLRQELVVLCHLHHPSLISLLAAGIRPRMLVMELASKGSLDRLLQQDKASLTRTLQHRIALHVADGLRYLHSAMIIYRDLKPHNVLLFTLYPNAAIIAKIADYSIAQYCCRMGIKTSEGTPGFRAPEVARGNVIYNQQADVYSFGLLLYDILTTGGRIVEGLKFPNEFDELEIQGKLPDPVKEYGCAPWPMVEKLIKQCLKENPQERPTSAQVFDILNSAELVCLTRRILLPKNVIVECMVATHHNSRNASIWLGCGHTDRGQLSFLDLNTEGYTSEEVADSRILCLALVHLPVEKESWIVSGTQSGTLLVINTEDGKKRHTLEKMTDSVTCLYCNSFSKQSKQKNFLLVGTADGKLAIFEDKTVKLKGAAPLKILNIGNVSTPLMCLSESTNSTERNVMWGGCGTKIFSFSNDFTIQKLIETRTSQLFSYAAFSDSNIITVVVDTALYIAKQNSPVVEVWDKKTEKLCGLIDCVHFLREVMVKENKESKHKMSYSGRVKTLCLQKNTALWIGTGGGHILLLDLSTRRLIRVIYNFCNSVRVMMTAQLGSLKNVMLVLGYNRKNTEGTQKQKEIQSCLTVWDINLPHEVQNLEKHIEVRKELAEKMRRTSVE
Procedure: as §1
Example compounds were reacted with the purified human LRRK2 G2019S (L10-12GG, SignalChem) enzyme to evaluate the enzyme inhibitory ability as follows. The reaction buffer was used as the composition of 40 mM Tris-HCl pH7.4, 20 mM MgCl2, 0.5 mg/ml BSA and 50 μM DTT, and the reaction of all test materials was performed on the reaction buffer. The compound was diluted with 10 mM DMSO stock in 12 steps by a serial dilution method, and the enzyme activity was measured at the final compound concentrations of 50, 10, 2, 0.4, 0.08, 0.016, 0.0032, 0.00064, 0.000128, 0.0000256, 0.00000512 and 0.000001024 μM. In the test, the human LRRK2 G2019S (16 ng) enzyme was reacted with the purified ATP (25 μM) and an enzyme substrate (0.2 μg) at 25° C. for 2 hours, and then the enzyme activity was identified using the in vitro ADP-Glo™ kinase assay (promega). The enzyme activity reaction liquid, an ADP-Glo reaction liquid and an enzyme potency detection solution were reacted in a ratio of 2:2:1, and the degree of inhibition of enzyme activity was measured by Luminescence. The degree of inhibition of enzyme activity according to the treatment concentrations of the respective compounds was calculated based on the fluorescence of the enzyme activity of a solvent control group that was not treated with the compound, where the concentration of each compound to inhibit enzyme activity inhibition by 50% was determined as an IC50 (nM) value and obtained using Prism (Version 5.01, GraphPad) software.
as §3

Compound	IC50 [1] [nM]	IC50 (human GST-CLK1 (129-end)) [nM]	IC50 (LRRK2 (G2019S)) [nM]
COc1cc(S(C)(=O)=O)ccc1Nc1cc(NC2CC2)c2cc[nH]c2n1 [Example 1, N^4-cyclopropyl-N^6-(2-methoxy-4-(methylsulfonyl)phenyl)-1H-pyrrolo[2,3-b]pyridine-4,6-diamine]	301 to 1000	301 to 1000	301 to 1000
CNc1cc(Nc2ccc(C(=O)N3CCOCC3)c3c2OCCO3)nc2[nH]ccc12 [Example 2, (8-((4-(Methylamino)-1H-pyrrolo[2,3-b]pyridine-6-yl)amino)-2,3-dihydrobenzo[b] [1,4]dioxin-5-yl)(morpholino) methanone]	301 to 1000	301 to 1000	< 100
CCNc1cc(Nc2ccc(C(=O)N3CCOCC3)c3c2OCCO3)nc2[nH]ccc12 [Example 3, (8-((4-(ethylamino)-1H-pyrrolo[2,3-b]pyridin-6-yl)amino)-2,3-dihydrobenzo[b] [1,4]dioxin-5-yl)(morpholino) methanone 2,2,2-trifluoroacetate]	301 to 1000	301 to 1000	101 to 300
CCCNc1cc(Nc2ccc(C(=O)N3CCOCC3)c3c2OCCO3)nc2[nH]ccc12 [Example 4, morpholino(8-((4-(propylamino)-1H-pyrrolo[2,3-b]pyridin-6-yl)amino)-2,3-dihydrobenzo [b] [1,4]dioxin-5-yl)(morpholino) methanone 2,2,2-trifluoroacetate]	301 to 1000	301 to 1000	< 100
CC(C)Nc1cc(Nc2ccc(C(=O)N3CCOCC3)c3c2OCCO3)nc2[nH]ccc12 [Example 5, (8-((4-(isopropylamino)-1H-pyrrolo[2,3-b]pyridin-6-yl)amino)-2,3-dihydrobenzo[b] [1,4]dioxin-5-yl)(morpholino) methanone]	301 to 1000	301 to 1000	< 100
CC(C)CNc1cc(Nc2ccc(C(=O)N3CCOCC3)c3c2OCCO3)nc2[nH]ccc12 [Example 6, (8-((4-(isobutylamino)-1H-pyrrolo[2,3-b]pyridin-6-yl)amino)-2,3-dihydrobenzo [b] [1,4]dioxin-5-yl)(morpholino) methanone]	301 to 1000	301 to 1000	< 100
O=C(c1ccc(Nc2cc(NC3CC3)c3cc[nH]c3n2)c2c1OCCO2)N1CCOCC1 [Example 7, (8-((4-(cyclopropylamino)-1H-pyrrolo[2,3-b]pyridin-6-yl)amino)-2,3-dihydrobenzo [b] [1,4]dioxin-5-yl)(morpholino) methanone]	301 to 1000	301 to 1000	< 100
O=C(c1ccc(Nc2cc(NC3CCCCC3)c3cc[nH]c3n2)c2c1OCCO2)N1CCOCC1 [Example 8, (8-((4-(cyclohexylamino)-1H-pyrrolo[2,3-b]pyridin-6-yl)amino)-2,3-dihydrobenzo[b] [1,4]dioxin-5-yl)(morpholino) methanone]	301 to 1000	301 to 1000	101 to 300
CS(=O)(=O)CCNc1cc(Nc2ccc(C(=O)N3CCOCC3)c3c2OCCO3)nc2[nH]ccc12 [Example 9, (8-((4-((2-(methylsulfonyl)ethyl)amino)-1H-pyrrolo[2,3-b]pyridin-6-yl)amino)-2,3-dihydrobenzo[b] [1,4]dioxin-5-yl)(morpholino) methanone]	301 to 1000	301 to 1000	< 100
CCNc1cc(Nc2ccc(S(=O)(=O)N3CCOCC3)cc2OC)nc2[nH]ccc12 [Example 11, N^4-ethyl-N^6-(2-methoxy-4-(morpholinosulfonyl)phenyl)-1H-pyrrolo[2,3-b]pyridine-4,6-diamine 2,2,2-trifluoroacetate]	301 to 1000	301 to 1000	101 to 300
CCCNc1cc(Nc2ccc(S(=O)(=O)N3CCOCC3)cc2OC)nc2[nH]ccc12 [Example 12, N^6-(2-methoxy-4-(morpholinosulfonyl)phenyl)-N^4-propyl-1H-pyrrolo[2,3-b]pyridine-4,6-diamine 2,2,2-trifluoroacetate]	301 to 1000	301 to 1000	< 100
COc1cc(S(=O)(=O)N2CCOCC2)ccc1Nc1cc(NC(C)C)c2cc[nH]c2n1 [Example 13, N^4-isopropyl-N^6-(2-methoxy-4-(morpholinosulfonyl)phenyl)-1H-pyrrolo[2,3-b]pyridine-4,6-diamine]	301 to 1000	301 to 1000	301 to 1000
COc1cc(S(=O)(=O)N2CCOCC2)ccc1Nc1cc(NCC(C)C)c2cc[nH]c2n1 [Example 14, N^4-isobutyl-N^6-(2-methoxy-4-(morpholinosulfonyl)phenyl)-1H-pyrrolo[2,3-b]pyridine-4,6-diamine]	301 to 1000	301 to 1000	301 to 1000
COc1cc(S(=O)(=O)N2CCOCC2)ccc1Nc1cc(NC2CC2)c2cc[nH]c2n1 [Example 15, N^4-cyclopropyl-N^6-(2-methoxy-4-(morpholinosulfonyl)phenyl)-1H-pyrrolo[2,3-b]pyridine-4,6-diamine]	301 to 1000	301 to 1000	< 100
COc1cc(S(=O)(=O)N2CCOCC2)ccc1Nc1cc(NC2CCCCC2)c2cc[nH]c2n1 [Example 16, N^4-cyclohexyl-N^6-(2-methoxy-4-(morpholinosulfonyl)phenyl)-1H-pyrrolo[2,3-b]pyridine-4,6-diamine]	301 to 1000	301 to 1000	301 to 1000
COc1cc(S(=O)(=O)N2CCOCC2)ccc1Nc1cc(NCCS(C)(=O)=O)c2cc[nH]c2n1 [Example 17, N^6-(2-methoxy-4-(morpholinosulfonyl)phenyl)-N^4-(2-(methylsulfonyl)ethyl)-1H-pyrrolo[2,3-b]pyridine-4,6-diamine]	301 to 1000	301 to 1000	301 to 1000
CNc1cc(Nc2ccc(S(=O)(=O)N3CCC(N4CCOCC4)CC3)cc2OC)nc2[nH]ccc12 [Example 18, N^6-(2-methoxy-4-((4-morpholinopiperidin-1-yl)sulfonyl)phenyl)-N^4-methyl-1H-pyrrolo[2,3-b]pyridine-4,6-diamine]	301 to 1000	301 to 1000	< 100
CCNc1cc(Nc2ccc(S(=O)(=O)N3CCC(N4CCOCC4)CC3)cc2OC)nc2[nH]ccc12 [Example 19, N^4-ethyl-N^6-(2-methoxy-4-((4-morpholinopiperidin-1-yl)sulfonyl)phenyl)-1H-pyrrolo[2,3-b]pyridine-4,6-diamine]	301 to 1000	301 to 1000	< 100
CCCNc1cc(Nc2ccc(S(=O)(=O)N3CCC(N4CCOCC4)CC3)cc2OC)nc2[nH]ccc12 [Example 20, N^6-(2-methoxy-4-((4-morpholinopiperidin-1-yl)sulfonyl)phenyl)-N^4-propyl-1H-pyrrolo[2,3-b]pyridine-4,6-diamine]	301 to 1000	301 to 1000	< 100
COc1cc(S(=O)(=O)N2CCC(N3CCOCC3)CC2)ccc1Nc1cc(NCC(C)C)c2cc[nH]c2n1 [Example 21, N^4-isobutyl-N^6-(2-methoxy-4-((4-morpholinopiperidin-1-yl)sulfonyl)phenyl)-1H-pyrrolo[2,3-b]pyridine-4,6-diamine]	301 to 1000	301 to 1000	< 100
